Legend:
Assay type in all cases: cell-based
[1] = system: Paracoccus zeaxanthinifaciens strain ATCC 21588; experiment: Example 7: cobalt concentration series, growth (OD610) and carotenoid levels (HPLC)
Experimental: (§1) In the following examples, carotenoids were quantified by high performance liquid chromatography (HPLC) as follows.
(§2) Two columns of Inertsil SIL-100A, 5 μm (ϕ4.6 mm×250 mm) (GL Sciences Inc., Japan) were connected together for use as a column. For elution, a mixed solution of n-hexane, tetrahydrofuran and methanol (40:20:1) serving as a mobile phase was passed through the column at a flow rate of 1.0 mL per minute at a constant temperature around room temperature. For measurement, samples were each dissolved in tetrahydrofuran and diluted 100-fold with the mobile phase, and 20 μL aliquots of the resulting dilutions were injected into the column. The column eluates were detected at a wavelength of 470 nm. As a standard for quantification, astaxanthin (SIGMA, Cat. No. A9335) was used. The astaxanthin concentration of the standard solution was determined using the following equation after measuring the absorbance (A) of the standard solution at 477 nm and the area percentage % (B) of the astaxanthin peak in HPLC analysis under the above conditions.
Subsequently, a medium of the following composition (glucose 30 g/L, filtered corn steep liquor 30 g/L, ammonium sulfate 1.5 g/L, potassium dihydrogen phosphate 1.5 g/L, disodium hydrogen phosphate dodecahydrate 3.8 g/L, calcium chloride dihydrate 5.0 g/L, magnesium sulfate heptahydrate 0.7 g/L, iron sulfate heptahydrate 1.0 g/L, silicon-based defoaming agent 0.2 g/L) was dispensed in 7.2 ml volumes into cotton-plugged test tubes having an inner diameter of 18 mm to prepare 9 test tubes containing a test tube medium for production. The ingredients used to prepare the test tube medium for production were obtained from lots where microbial cells had been confirmed not to grow well.
The resulting culture solution was then inoculated in 0.05 ml volumes into the 9 types of test tube media for production having different cobalt concentrations, and cultured under shaking at 28° C. for 4 days at 300 spm.
(§3) After being cultured for 4 days, the culture solutions were each measured for microbial cell growth by OD610 and measure for carotenoid levels by HPLC.

[2] = system: Paracoccus sp. strain A-581-1 (FERM BP-4671); experiment: Example 6: cobalt concentration series, growth (OD610) and carotenoid levels (HPLC)
Experimental: as §1, §2
The ingredients used to prepare the test tube medium for seed culture were obtained from lots where microbial cells had been confirmed to grow well.
The ingredients used to prepare the test tube medium for production were obtained from lots where microbial cells had been confirmed not to grow well.
The resulting culture solution was then inoculated in 0.05 ml volumes into the 7 types of test tube media for production having different cobalt concentrations, and cultured under shaking at 29° C. for 4 days at 300 spm.
as §3

[3] = system: Paracoccus carotinifaciens strain E-396 (FERM BP-4283); experiment: Example 4: medium lots A-E with cobalt chloride, growth (OD610) and carotenoid levels (HPLC); conditions: for Astaxanthin / OD610 / Total carotenoid: cobalt chloride added 0.1 mg/L (0.42 μmol/L)
Experimental: as §1, §2
Subsequently, medium ingredients from different manufacturers and lots were combined to prepare 5 types of media, i.e., A, B, C, D and E indicated in Table 7, each having the following composition (glucose 30 g/L, filtered corn steep liquor 30 g/L, ammonium sulfate 1.5 g/L, potassium dihydrogen phosphate 1.5 g/L, disodium hydrogen phosphate dodecahydrate 3.8 g/L, calcium chloride dihydrate 5.0 g/L, magnesium sulfate heptahydrate 0.7 g/L, iron sulfate heptahydrate 1.0 g/L, silicon-based defoaming agent 0.2 g/L). These media were each dispensed in 7.2 ml volumes into cotton-plugged test tubes having an inner diameter of 18 mm to prepare 2 test tubes for each test tube medium for production, i.e., 10 test tubes in total.
The resulting culture solution was then inoculated in 0.05 ml volumes into the 5 types of test tube media for production having different cobalt concentrations (10 test tubes in total), and cultured under shaking at 28° C. for 4 days at 300 spm.
as §3

[4] = cobalt added 0.00042 μmol/L, total 0.0024 μmol/L
[5] = cobalt added 0.0042 μmol/L, total 0.0062 μmol/L
[6] = cobalt added 0.021 μmol/L, total 0.023 μmol/L
[7] = cobalt added 0.042 μmol/L, total 0.044 μmol/L
[8] = cobalt added 0.42 μmol/L, total 0.42 μmol/L
[9] = cobalt added 4.2 μmol/L, total 4.2 μmol/L
[10] = cobalt added 21 μmol/L, total 21 μmol/L
[11] = cobalt added 42 μmol/L, total 42 μmol/L
[12] = medium lot A, total cobalt 0.42 μmol/L
[13] = medium lot B, total cobalt 0.62 μmol/L
[14] = medium lot C, total cobalt 0.46 μmol/L
[15] = medium lot D, total cobalt 0.43 μmol/L
[16] = medium lot E, total cobalt 0.49 μmol/L
[17] = final concentration of 0.1 mg/L, regardless of manufacturer and lot of medium ingredient

O.O.O.O.O.O.[Cl-].[Cl-].[Co+2] [Cobalt chloride hexahydrate]
Carotenoid: Zeaxanthin [1, 4]: 0.6 mg/L
Carotenoid: β-Carotene [1, 4]: 0.0 mg/L
Carotenoid: β-Cryptoxanthin [1, 4]: 0.0 mg/L
OD610 [1, 4]: 2
Total carotenoid [1, 4]: 0.6 mg/L
Carotenoid: Zeaxanthin [1, 5]: 2.0 mg/L
Carotenoid: β-Carotene [1, 5]: 0.2 mg/L
Carotenoid: β-Cryptoxanthin [1, 5]: 0.1 mg/L
OD610 [1, 5]: 6
Total carotenoid [1, 5]: 2.3 mg/L
Carotenoid: Zeaxanthin [1, 6]: 10.6 mg/L
Carotenoid: β-Carotene [1, 6]: 0.7 mg/L
Carotenoid: β-Cryptoxanthin [1, 6]: 0.3 mg/L
OD610 [1, 6]: 25
Total carotenoid [1, 6]: 11.6 mg/L
Carotenoid: Zeaxanthin [1, 7]: 13.6 mg/L
Carotenoid: β-Carotene [1, 7]: 0.8 mg/L
Carotenoid: β-Cryptoxanthin [1, 7]: 0.3 mg/L
OD610 [1, 7]: 29
Total carotenoid [1, 7]: 14.7 mg/L
Carotenoid: Zeaxanthin [1, 8]: 13.4 mg/L
Carotenoid: β-Carotene [1, 8]: 0.7 mg/L
Carotenoid: β-Cryptoxanthin [1, 8]: 0.3 mg/L
OD610 [1, 8]: 29
Total carotenoid [1, 8]: 14.4 mg/L
Carotenoid: Zeaxanthin [1, 9]: 12.9 mg/L
Carotenoid: β-Carotene [1, 9]: 0.7 mg/L
Carotenoid: β-Cryptoxanthin [1, 9]: 0.3 mg/L
OD610 [1, 9]: 28
Total carotenoid [1, 9]: 13.9 mg/L
Carotenoid: Zeaxanthin [1, 10]: 10.8 mg/L
Carotenoid: β-Carotene [1, 10]: 0.6 mg/L
Carotenoid: β-Cryptoxanthin [1, 10]: 0.4 mg/L
OD610 [1, 10]: 24
Total carotenoid [1, 10]: 11.8 mg/L
Carotenoid: Zeaxanthin [1, 11]: 6.4 mg/L
Carotenoid: β-Carotene [1, 11]: 0.3 mg/L
Carotenoid: β-Cryptoxanthin [1, 11]: 0.3 mg/L
OD610 [1, 11]: 18
Total carotenoid [1, 11]: 7.0 mg/L
Astaxanthin [2, 4]: 0.3 mg/L
OD610 [2, 4]: 3
Total carotenoid [2, 4]: 0.9 mg/L
Astaxanthin [2, 5]: 0.5 mg/L
OD610 [2, 5]: 5
Total carotenoid [2, 5]: 1.7 mg/L
Astaxanthin [2, 7]: 2.0 mg/L
OD610 [2, 7]: 21
Total carotenoid [2, 7]: 5.3 mg/L
Astaxanthin [2, 8]: 2.1 mg/L
OD610 [2, 8]: 22
Total carotenoid [2, 8]: 5.6 mg/L
Astaxanthin [2, 9]: 1.2 mg/L
OD610 [2, 9]: 21
Total carotenoid [2, 9]: 5.5 mg/L
Astaxanthin [2, 11]: 0.0 mg/L
OD610 [2, 11]: 2
Total carotenoid [2, 11]: 0.2 mg/L
Astaxanthin ([3]; Average of medium lots A-E): 28 mg/L
OD610 ([3]; Average of medium lots A-E): 37
Total carotenoid ([3]; Average of medium lots A-E): 41 mg/L
Astaxanthin [3, 12]: 29 mg/L
OD610 [3, 12]: 37
Total carotenoid [3, 12]: 41 mg/L
Astaxanthin [3, 13]: 26 mg/L
OD610 [3, 13]: 39
Total carotenoid [3, 13]: 40 mg/L
Astaxanthin [3, 14]: 29 mg/L
OD610 [3, 14]: 38
Total carotenoid [3, 14]: 44 mg/L
Astaxanthin [3, 15]: 27 mg/L
OD610 [3, 15]: 36
Total carotenoid [3, 15]: 41 mg/L
Astaxanthin [3, 16]: 28 mg/L
OD610 [3, 16]: 37
Total carotenoid [3, 16]: 40 mg/L
bacterial growth, in words [3, 17]: high
carotenoid productivity, in words [3, 17]: high
